# Assay results published in the Kinase Knowledgebase extract (Sharma et al. 2016).
# Where “and” joins values, the source holds several entries; their conditions need not be identical. Equal values may be shown once.
# Key:
# [1] = target: PIK3CA (UniProt P42336); test: Inhibition of PIK3CA Kinase Activity; conditions: for inhibition: concentration not given here
# [2] = system: PIK3CD (mouse); test: Assessment of Stimulus Induced B Cell Proliferation; conditions: b cells
# [3] = target: PIK3CB (UniProt P42338); test: Inhibition of PIK3CB Kinase Activity; conditions: for inhibition: concentration not given here
# PIK3CB, sequence (P42338 whole entry, looked up): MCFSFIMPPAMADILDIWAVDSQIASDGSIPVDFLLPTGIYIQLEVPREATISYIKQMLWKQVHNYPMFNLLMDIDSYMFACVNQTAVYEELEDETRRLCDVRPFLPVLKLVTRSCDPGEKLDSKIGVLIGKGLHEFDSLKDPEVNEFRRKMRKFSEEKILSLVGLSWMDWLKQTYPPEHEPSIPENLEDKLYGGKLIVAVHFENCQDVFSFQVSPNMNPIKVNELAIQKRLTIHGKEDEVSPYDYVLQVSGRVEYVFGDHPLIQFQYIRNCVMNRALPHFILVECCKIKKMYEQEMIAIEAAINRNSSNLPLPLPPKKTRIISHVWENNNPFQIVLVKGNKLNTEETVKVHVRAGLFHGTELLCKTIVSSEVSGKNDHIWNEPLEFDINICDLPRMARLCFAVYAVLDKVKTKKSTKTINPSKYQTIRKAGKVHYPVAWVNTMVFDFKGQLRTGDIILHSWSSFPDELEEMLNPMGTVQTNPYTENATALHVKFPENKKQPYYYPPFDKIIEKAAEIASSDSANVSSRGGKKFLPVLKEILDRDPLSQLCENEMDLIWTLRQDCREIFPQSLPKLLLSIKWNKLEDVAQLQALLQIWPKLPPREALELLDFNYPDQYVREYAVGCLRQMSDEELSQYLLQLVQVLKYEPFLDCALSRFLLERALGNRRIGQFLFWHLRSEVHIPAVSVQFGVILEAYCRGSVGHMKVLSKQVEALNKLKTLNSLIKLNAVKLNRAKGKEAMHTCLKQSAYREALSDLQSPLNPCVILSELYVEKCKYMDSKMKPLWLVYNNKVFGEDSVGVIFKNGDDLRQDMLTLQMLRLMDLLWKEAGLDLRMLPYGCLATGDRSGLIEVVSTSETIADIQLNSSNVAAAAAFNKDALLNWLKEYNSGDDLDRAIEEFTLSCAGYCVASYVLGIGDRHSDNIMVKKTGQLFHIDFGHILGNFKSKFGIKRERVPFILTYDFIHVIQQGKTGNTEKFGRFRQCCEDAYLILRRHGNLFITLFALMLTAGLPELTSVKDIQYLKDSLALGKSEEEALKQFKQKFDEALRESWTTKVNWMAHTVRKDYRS
# [4] = target: PIK3CD (Human) (UniProt O00329); test: Assessment of Stimulus Induced TCE Cell Proliferation; conditions: t cells
# PIK3CD (Human), sequence (O00329 whole entry, looked up): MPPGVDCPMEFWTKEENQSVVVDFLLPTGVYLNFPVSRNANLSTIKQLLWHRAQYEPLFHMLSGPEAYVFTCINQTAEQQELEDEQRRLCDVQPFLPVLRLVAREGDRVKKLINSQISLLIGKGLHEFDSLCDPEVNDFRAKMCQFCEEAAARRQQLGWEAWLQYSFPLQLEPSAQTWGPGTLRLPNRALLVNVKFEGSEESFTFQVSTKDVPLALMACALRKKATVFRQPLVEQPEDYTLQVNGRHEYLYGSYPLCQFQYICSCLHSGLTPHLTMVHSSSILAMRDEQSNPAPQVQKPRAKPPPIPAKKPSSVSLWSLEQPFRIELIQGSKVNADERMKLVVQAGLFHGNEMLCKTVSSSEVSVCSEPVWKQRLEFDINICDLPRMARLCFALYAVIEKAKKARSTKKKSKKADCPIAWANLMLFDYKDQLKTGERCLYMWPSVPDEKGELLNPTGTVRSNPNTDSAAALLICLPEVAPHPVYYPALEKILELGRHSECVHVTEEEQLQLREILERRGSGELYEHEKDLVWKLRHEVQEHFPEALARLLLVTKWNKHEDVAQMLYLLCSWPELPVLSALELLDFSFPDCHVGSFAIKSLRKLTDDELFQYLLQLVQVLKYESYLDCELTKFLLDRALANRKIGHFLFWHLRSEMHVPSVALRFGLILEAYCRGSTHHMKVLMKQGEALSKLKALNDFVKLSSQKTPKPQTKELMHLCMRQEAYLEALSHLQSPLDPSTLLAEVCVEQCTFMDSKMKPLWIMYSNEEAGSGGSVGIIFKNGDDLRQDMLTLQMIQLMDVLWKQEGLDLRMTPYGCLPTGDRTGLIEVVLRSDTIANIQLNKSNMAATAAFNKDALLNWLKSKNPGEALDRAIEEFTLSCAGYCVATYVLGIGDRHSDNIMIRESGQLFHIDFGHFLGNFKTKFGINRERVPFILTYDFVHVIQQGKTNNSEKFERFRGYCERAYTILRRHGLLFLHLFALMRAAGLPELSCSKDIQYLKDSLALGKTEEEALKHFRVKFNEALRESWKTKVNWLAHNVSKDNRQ
# [5] = target: PIK3CD (Human) (UniProt O00329); test: Evaluation of PIK3CD inhibitors on Elastase Release in Human PMN Cells
# [6] = target: PIK3CD (Human) (UniProt O00329); test: Evaluation of PIK3CD inhibitors on Neutrophil Migration; conditions: pmn
# [7] = target: PIK3CG (UniProt P48736); test: Inhibition of PIK3CG Kinase Activity; conditions: for inhibition: concentration not given here
# PIK3CG, sequence (P48736 whole entry, looked up): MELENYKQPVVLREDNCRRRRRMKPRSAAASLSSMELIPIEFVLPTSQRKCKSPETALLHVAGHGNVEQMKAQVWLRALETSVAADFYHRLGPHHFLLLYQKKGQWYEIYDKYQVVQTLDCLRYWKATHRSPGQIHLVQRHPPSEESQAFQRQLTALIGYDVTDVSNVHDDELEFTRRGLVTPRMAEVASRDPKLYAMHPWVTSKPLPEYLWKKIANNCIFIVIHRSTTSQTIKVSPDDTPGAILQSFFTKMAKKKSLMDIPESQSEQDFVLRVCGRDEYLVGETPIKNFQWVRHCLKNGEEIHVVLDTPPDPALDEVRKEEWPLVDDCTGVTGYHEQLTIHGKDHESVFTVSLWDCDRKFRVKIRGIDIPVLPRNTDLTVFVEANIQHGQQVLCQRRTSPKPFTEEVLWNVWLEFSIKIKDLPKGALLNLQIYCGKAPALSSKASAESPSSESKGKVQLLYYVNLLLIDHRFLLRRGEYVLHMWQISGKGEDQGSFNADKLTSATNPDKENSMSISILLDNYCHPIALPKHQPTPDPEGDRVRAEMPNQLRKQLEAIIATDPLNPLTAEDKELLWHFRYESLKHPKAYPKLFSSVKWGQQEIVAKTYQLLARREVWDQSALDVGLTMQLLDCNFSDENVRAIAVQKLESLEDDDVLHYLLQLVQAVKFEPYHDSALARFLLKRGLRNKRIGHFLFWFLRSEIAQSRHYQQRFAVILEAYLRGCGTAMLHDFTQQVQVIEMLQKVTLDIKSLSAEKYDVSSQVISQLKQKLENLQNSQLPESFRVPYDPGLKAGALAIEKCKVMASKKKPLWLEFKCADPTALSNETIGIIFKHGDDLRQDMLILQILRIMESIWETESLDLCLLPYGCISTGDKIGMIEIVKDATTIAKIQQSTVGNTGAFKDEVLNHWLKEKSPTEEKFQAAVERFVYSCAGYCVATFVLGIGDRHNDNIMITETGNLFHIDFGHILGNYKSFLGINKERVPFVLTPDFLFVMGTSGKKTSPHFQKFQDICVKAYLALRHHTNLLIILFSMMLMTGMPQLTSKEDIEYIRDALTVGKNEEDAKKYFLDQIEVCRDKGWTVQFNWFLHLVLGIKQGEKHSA
# PIK3CA, sequence (P42336 whole entry, looked up): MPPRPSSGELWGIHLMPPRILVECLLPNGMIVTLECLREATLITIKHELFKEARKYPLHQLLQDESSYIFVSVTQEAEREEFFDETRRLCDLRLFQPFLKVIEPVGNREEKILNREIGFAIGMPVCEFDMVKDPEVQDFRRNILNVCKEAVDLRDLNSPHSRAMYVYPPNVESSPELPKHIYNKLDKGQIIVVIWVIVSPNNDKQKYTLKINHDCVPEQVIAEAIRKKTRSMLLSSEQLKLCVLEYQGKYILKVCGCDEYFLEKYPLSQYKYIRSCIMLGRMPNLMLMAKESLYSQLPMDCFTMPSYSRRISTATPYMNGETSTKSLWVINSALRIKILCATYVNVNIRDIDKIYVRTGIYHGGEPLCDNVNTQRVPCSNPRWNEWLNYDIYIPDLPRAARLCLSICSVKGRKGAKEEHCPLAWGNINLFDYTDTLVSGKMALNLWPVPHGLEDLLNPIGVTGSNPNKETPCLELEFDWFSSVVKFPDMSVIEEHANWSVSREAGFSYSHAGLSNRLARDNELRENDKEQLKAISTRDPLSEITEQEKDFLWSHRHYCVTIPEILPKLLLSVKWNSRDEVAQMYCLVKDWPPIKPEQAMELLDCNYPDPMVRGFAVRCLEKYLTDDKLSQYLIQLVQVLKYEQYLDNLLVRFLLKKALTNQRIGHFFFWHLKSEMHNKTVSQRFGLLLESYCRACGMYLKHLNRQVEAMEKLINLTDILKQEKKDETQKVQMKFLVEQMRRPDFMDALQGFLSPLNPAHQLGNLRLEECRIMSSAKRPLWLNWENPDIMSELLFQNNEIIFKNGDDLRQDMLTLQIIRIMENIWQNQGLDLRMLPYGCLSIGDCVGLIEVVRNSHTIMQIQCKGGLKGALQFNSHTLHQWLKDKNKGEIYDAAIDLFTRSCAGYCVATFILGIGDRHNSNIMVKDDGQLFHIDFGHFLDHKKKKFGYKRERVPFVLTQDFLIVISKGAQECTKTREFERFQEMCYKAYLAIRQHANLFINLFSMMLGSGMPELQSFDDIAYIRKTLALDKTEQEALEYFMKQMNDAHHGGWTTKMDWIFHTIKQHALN
Compound,inhibition [1] [%],EC50 [2] [µM],IC50 [3],EC50 [4] [µM],EC50 [5] [µM],inhibition [3] [%],further results
Nc1ncnc2c1ncn2Cc1nc2cccc(F)c2c(=O)n1Cc1ccccc1,-10,2,30 µM,6.3,5,–,–
COc1ccccc1-n1c(CSc2ncnc3[nH]cnc23)nc2ccccc2c1=O,36,–,95 µM,–,–,–,–
O=c1c2c(Cl)cccc2nc(CSc2ncnc3[nH]cnc23)n1-c1ccccc1-c1ccccc1,–,1.4,13 µM,–,–,27,–
Nc1ncnc2c1ncn2Cc1nc2c(Cl)cccc2c(=O)n1-c1ccccc1Cl,18,1,68 µM,–,–,–,–
Cc1cccc2nc(CSc3ncnc4[nH]cnc34)n(-c3ccccc3C(C)C)c(=O)c12,–,0.2,–,2.9,0.3,–,–
COc1ccccc1Cn1c(CSc2ncnc3[nH]cnc23)nc2ccccc2c1=O,–,0.9,31 µM,4.1,5.5,27,EC50 [6]: 0.2 µM
Cc1ccccc1-n1c(Cn2cnc3c(N)ncnc32)nc2cccc(C)c2c1=O,–,0.1,–,–,–,–,–
CN1CCN(n2c(CSc3ncnc4[nH]cnc34)nc3ccccc3c2=O)CC1,–,–,61 µM,–,–,–,IC50 [1]: 105 µM
O=c1c2cccc(Cl)c2nc(CSc2ncnc3[nH]cnc23)n1-c1ccccc1Cl,–,1.8,110 µM,3.5,–,–,IC50 [1]: 100 µM
O=c1c2c(Cl)cccc2nc(CSc2ncnc3[nH]cnc23)n1-c1ccccc1Cl,–,0.3,–,4.4,0.3,–,EC50 [6]: 0.3 µM
O=c1c2c(Cl)cccc2nc(CSc2ncnc3[nH]cnc23)n1-c1ccccc1F,–,0.3,105 µM and 55 µM,–,0.9,–,–
O=c1c2cc3ccccc3cc2nc(CSc2ncnc3[nH]cnc23)n1-c1ccccc1Cl,0,0.9,105 µM and 100 µM,0.9,–,–,IC50 [1]: 67 µM
Nc1ncnc2c1ncn2Cc1nc2cccc(Cl)c2c(=O)n1-c1ccccc1F,–,0.3,108 µM and 11 µM,–,0.3,–,IC50 [7]: 50 µM
Cc1cccc2nc(Cn3cnc4c(N)ncnc43)n(-c3ccccc3C(C)C)c(=O)c12,-10,0.1,–,3.4,0.5,–,IC50 [1]: 49 µM; EC50 [6]: 0.3 µM
O=c1c2ccccc2nc(CSc2ncnc3[nH]cnc23)n1N1CCOCC1,–,0.9,–,–,5,–,inhibition [7]: 57%
O=c1c2ccccc2nc(CSc2ncnc3[nH]cnc23)n1-c1ccc(Cl)cc1,–,–,–,–,–,31,IC50 [1]: 0.7 µM
O=c1c2ccccc2nc(CSc2ncnc3[nH]ncc23)n1-c1ccccc1Cl,38,3.1,–,5.9,> 20,29,IC50 [1]: 105 µM; EC50 [6]: 1 µM
Cc1ccccc1-n1c(CSc2ncnc3[nH]cnc23)nc2cccc(Cl)c2c1=O,26,0.2,–,–,0.3,–,IC50 [1]: 48 µM
Cc1cccc2nc(CSc3ncnc4[nH]cnc34)n(-c3ccccc3F)c(=O)c12,13,0.2,–,–,0.7,–,IC50 [1]: 74 µM
Nc1ncnc2c1ncn2Cc1nc2cccc(Cl)c2c(=O)n1-c1ccccc1-c1ccccc1,30,0.3,6 µM and 18 µM,–,10.5,–,IC50 [1]: 82 µM
Nc1ncnc2c1ncn2Cc1nc2cc(F)ccc2c(=O)n1-c1ccccc1Cl,–,3.9,–,5.7,–,47,IC50 [1]: 92 µM
Cc1cccc2nc(Cn3cnc4c(N)ncnc43)n(-c3ccccc3Cl)c(=O)c12,–,0.3,30 µM and 72 µM,4.2,0.4,–,–
Cc1cccc2nc(CSc3ncnc4[nH]cnc34)n(-c3c(Cl)cccc3Cl)c(=O)c12,8,0.6,11 µM and 103 µM,–,–,–,IC50 [1]: 19 µM
O=c1c2ccccc2nc(CSc2ncnc3[nH]cnc23)n1-c1ccccc1,–,1.4,–,–,–,–,inhibition [7]: 39%

Compound,inhibition [1] [%],EC50 [2] [µM],IC50 [3],EC50 [4] [µM],EC50 [5] [µM],inhibition [3] [%],further results
Nc1ncnc2c1ncn2Cc1nc2cccc(Cl)c2c(=O)n1-c1ccccc1Cl,–,0.2,6 µM and 44 µM,5.3,0.3,–,–
Nc1ncnc2c1ncn2Cc1nc2ccc(Br)cc2c(=O)n1-c1ccccc1Cl,12,–,–,–,–,22,–
Nc1ncnc2c1ncn2Cc1nc2ccccc2c(=O)n1N1CCOCC1,11,–,–,–,–,43,–
O=c1c2ccc([N+](=O)[O-])cc2nc(CSc2ncnc3[nH]cnc23)n1-c1ccccc1Cl,17,–,–,–,–,9,–
COc1cc2nc(Cn3cnc4c(N)ncnc43)n(-c3ccccc3Cl)c(=O)c2cc1OC,17,–,45 µM,–,–,–,–
COc1cccc(-n2c(CSc3ncnc4[nH]cnc34)nc3ccccc3c2=O)c1,23,–,–,–,–,36,–
O=c1c2ccccc2nc(CSc2ncnc3[nH]cnc23)n1Cc1ccccc1,–,1.2,80 µM,–,1.3,42,EC50 [6]: 2 µM
O=c1c2cc(O)ccc2nc(CSc2ncnc3[nH]cnc23)n1-c1ccccc1Cl,–,–,–,–,2.9,24,IC50 [1]: 100 µM
CCCCn1c(Cn2cnc3c(N)ncnc32)nc2ccccc2c1=O,1,–,41 µM,–,–,–,–
O=c1c2ccc(F)cc2nc(CSc2ncnc3[nH]cnc23)n1-c1ccccc1Cl,–,1.8,110 µM,2.3,–,-1,inhibition [7]: 40%
O=c1c2ccccc2nc(CSc2ncnc3[nH]cnc23)n1-c1cccc(Cl)c1,33,–,–,–,–,35,–
COc1cc2nc(CSc3ncnc4[nH]cnc34)n(-c3ccccc3Cl)c(=O)c2cc1OC,9,–,–,–,–,19,–
COc1cccc(Cn2c(CSc3ncnc4[nH]cnc34)nc3ccccc3c2=O)c1,–,–,–,–,–,–,IC50 [7]: 72 µM
O=c1c2ccccc2nc(CSc2ncnc3[nH]cnc23)n1-c1ccncc1,30,–,25 µM,–,–,–,–
COc1ccccc1-n1c(CSc2ncnc3[nH]cnc23)nc2cccc(C)c2c1=O,19,0.3,30 µM and 9 µM,–,0.5,–,IC50 [1]: 30 µM
O=c1c2cc(Cl)ccc2nc(CSc2ncnc3[nH]cnc23)n1-c1ccccc1Cl,31,–,–,–,–,31,–
Cc1cccc2nc(Cn3cnc4c(N)ncnc43)n(-c3ccccc3F)c(=O)c12,–,0.4,95 µM and 14 µM,5,0.9,–,IC50 [1]: 90 µM and 70 µM
CCOC(=O)Cn1c(CSc2ncnc3[nH]cnc23)nc2cccc(F)c2c1=O,2,–,–,–,9,26,–
O=c1c2cc(Br)ccc2nc(CSc2ncnc3[nH]cnc23)n1-c1ccccc1Cl,11,–,–,–,–,-8,–
Nc1ncnc2c1ncn2Cc1nc2ccc(Cl)cc2c(=O)n1-c1ccccc1Cl,7,–,–,–,–,11,–
CCCCn1c(CSc2ncnc3[nH]cnc23)nc2ccccc2c1=O,–,1.4,–,2.9,5,–,–
O=c1c2cc(F)c(F)cc2nc(CSc2ncnc3[nH]cnc23)n1-c1ccccc1Cl,–,> 2,110 µM and 58 µM,–,2,–,–
O=c1c2c(F)cccc2nc(CSc2ncnc3[nH]cnc23)n1Cc1ccccc1,17,1.4,–,2.6,–,23,–
O=c1c2cc(F)ccc2nc(CSc2ncnc3[nH]cnc23)n1-c1ccccc1Cl,–,0.4,13 µM,–,1,19,–
